Where a name gives a salt, the structure may show the parent alone.
Legend:
bacteria = experiment: Mutagenicity in bacteria; type: cell-based
[1] = system: female rats (estrous cycle, uterine weights); conditions: 13-week repeated oral dose, all doses
[2] = Human pharmacokinetics (Phase 1)
bone marrow of rats = experiment: Clastogenicity in bone marrow of rats; type: in vivo, rat
rats [3] = experiment: Teratogenicity in rats; type: in vivo, rat
[4] = system: AVP-induced dermal vasoconstriction; experiment: AVP-induced dermal vasoconstriction in Phase 1 subjects; type: in vivo, human; conditions: 50 mg IV
human lymphocytes = experiment: Clastogenicity in human lymphocytes in vitro; type: cell-based
[5] = system: heart failure induced by rapid right ventricular pacing; experiment: Dogs with heart failure induced by rapid right ventricular pacing; type: in vivo, dog; conditions: intravenous 0.1 mg/kg
[6] = Oral pharmacokinetics in dogs; type: in vivo; conditions: dog
Excerpt: (§1) There is a marked food effect with absorption reduced by >50% in dogs after a meal.

bone marrow = experiment: 2- and 13-week oral toxicity studies in dogs; type: in vivo, dog
[7] = Oral pharmacokinetics in rats; type: in vivo; conditions: rat
Excerpt: as §1

human subjects = experiment: Safety in Phase 1 subjects; type: in vivo
Excerpt: Other adverse events included flushes, a sensation of cold extremities, abdominal complaints, abnormal stools, syncope, dizziness, palpitations, and postural hypotension. […] These observations were considered related to antagonism of V2 receptors and not a safety concern. Vital signs (blood pressure and heart rate) were unaffected by YM087.

[8] = system: AVP-induced pressor response (V1A antagonism); experiment: Antagonism of AVP-induced pressor response in dogs, intravenous; type: in vivo, dog
[9] = system: urinary output (V2 antagonism); experiment: Urinary output and osmolality in conscious dogs, oral; type: in vivo, dog
rats [10] = conditions: rat, in vivo, 2.5 mg/kg
rats (fertility) = experiment: Reproductive performance and female fertility study in rats; type: in vivo, rat
rabbits = experiment: Teratogenicity in rabbits; type: in vivo, rabbit
[11] = system: AVP-induced platelet aggregation (V1A antagonist activity); experiment: AVP-induced platelet aggregation in Phase 1 subjects; type: in vivo, human; conditions: 20 mg/day orally or 2.5 mg IV
[12] = system: AVP-induced pressor response (V1A antagonism); experiment: Antagonism of AVP-induced pressor response in rats, oral; type: in vivo, rat
[13] = system: aquaretic action (V2-receptor antagonism); experiment: Aquaretic action in normal subjects (Phase 1); type: in vivo, human
dogs = conditions: dog, in vivo, 2 mg/kg

For `Cc1nc2c([nH]1)-c1ccccc1N(C(=O)c1ccc(NC(=O)c3ccccc3-c3ccccc3)cc1)CC2` [YM087, N-[4-(2-methyl-4,5,6-tetrahydromidazo[4,5-d][1]benzazepin-6-ylcarbonyl)phenyl]biphenyl-2-carboxamide hydrochloride], the mutagenicity (bacteria) was “not mutagenic”, the uterine weights [1] was “decreased at all doses” and the “plasma levels after repeated BID oral doses” value ([2]; 60 mg BID oral, after the second dose) was “unexpectedly high plasma levels after the second dose”. The half-life ([2]; plasma) was 4 to 5 h, the bioavailability ([2]; plasma, oral) was 43 to 59% and the Tmax ([2]; plasma, po) was about 1 h. The bioavailability ([2]; plasma, po, 60 mg) was 44%, the clastogenicity (bone marrow of rats) was “not clastogenic” and the teratogenicity (rats [3]) was “not teratogenic”. The AVP-induced dermal vasoconstriction [4] was “Total inhibition”, the clastogenicity (human lymphocytes) was “not clastogenic” and the cardiac function [5] was “significantly improved the depressed cardiac function”. The diuresis [5] was “produced a water diuresis”, the “time to peak concentrations” value [6] was 1 h and the peripheral blood counts (bone marrow; affected dogs, 13-week oral study) was “Decreased peripheral erythrocyte, leukocyte, and/or platelet counts”. The “reversibility of bone marrow and peripheral blood changes” value (bone marrow; dogs) was “reversible”, the “time to peak concentrations” value [7] was 0.5 h and the “biochemical or hematological laboratory parameters” value (human subjects; Phase 1 subjects) was “No drug-related trend was observed”. For the same molecule, the “vital signs (blood pressure and heart rate)” value (human subjects; Phase 1 subjects) was “unaffected”, the overall safety (human subjects; approximately 250 subjects treated) was “no major safety concerns were identified” and the “urinary and plasma osmolarity” value (human subjects; at higher doses, considered related to V2 antagonism) was “urinary osmolarity decreased and plasma osmolarity increased with or without an increase in plasma sodium”. For the same molecule, the serious adverse event (human subjects; one patient with severe CHF, 80 mg/day for 4 days, relation to study drug could not be excluded) was “generalized tonic clonic seizure”, the “most frequent adverse events” value (human subjects; regardless of treatment association) was “mild or moderate thirst and mild headache” and the “white blood cell counts” value (human subjects; three subjects who received YM087 (one on placebo)) was “minor, reversible decreases in white blood cell counts”. For the same molecule, the “ID50 (dose that reduced the AVP response by 50%)” value [8] was 0.026 mg/kg, the urinary output ([9]; conscious dogs, oral 0.03 to 0.3 mg/kg, dose-related) was “increased urinary output” and the urinary osmolality ([9]; conscious dogs, oral 0.03 to 0.3 mg/kg, reduced from 1500, dose-related) was under 100 mOsm/kg H2O. The “effect on urinary sodium (Na) or potassium (K) excretion” value ([9]; unlike furosemide, species not given) was “little or no effect”, the “toxicity in 4-week IV study” value (rats [10]) was “No toxicity was observed” and the female fertility (rats (fertility); female rats, 100 mg/kg orally for 2 weeks prior to mating with untreated males) was “reduced fertility index, increased implantation loss, and decreased live fetuses”. The “reproductive performance of male rats” value (rats (fertility); male rats) was “did not affect”, the teratogenicity (rabbits) was “not teratogenic” and the AVP-induced platelet aggregation [11] was “Inhibition of AVP-induced platelet aggregation”. For the same molecule, the “ID50 (dose that reduced the AVP response by 50%)” value [12] was 0.32 mg/kg, the “duration of increased urine production rate postdosing” value ([13]; IV 50 mg/day) was at most 6 h and the “duration of increased urine production rate postdosing” value ([13]; IV doses up to 250 μg/kg) was “up to 3 hours”. The “tolerability of aquaretic effects” value ([13]; normal subjects, 120 mg QD or 60 mg BID orally or 50 mg IV) was “considered too uncomfortable in normal subjects to be tolerable”, the “dose at which aquaretic action with decrease in urine osmolarity starts” value ([13]; normal subjects, IV) was 0.05 mg/kg and the “dose at which aquaretic action with decrease in urine osmolarity starts” value ([13]; normal subjects, oral) was 15 mg. The “toxicity in 4-week IV study” value (dogs) was “No toxicity was observed”.

Source: patent US7192951B2, “Treatment of congestive heart failure” (Astellas Pharma Inc., priority 2000, dated 2007)
